# Patent publication US11908550B2, “Method for determining different PBDEs derivatives from their response to activities of enoyl-ACP reductase” (Nanjing University, priority 2020, dated 2024)
# Entries after “also recorded” stand apart in the source; their conditions may differ.
# Target: T1, enoyl-ACP reductase (recombinant FabI) (Escherichia coli, UniProt P0AEK4)
# T1 construct: His; made in house; host or cells: E. coli
# Assay: in vitro binding activity assay (FabI enzyme activity, oxidation rate of NADH to NAD+ at 340 nm)
# Type: biochemical, E. coli
# Conditions: PBDEs 0.014-10 μM incubated with 100 nM recombinant FabI on ice for 60 minutes
# Description: The in vitro binding activity assay was as follows: overexpression of His-labeled FabI in the E. coli lysate was prepared. When the bacterial optical density (OD600) reached 0.6, the expression was induced overnight with 1 mm IPTG at 16° C. Then, the bacteria were collected and washed once with PBS. The bacteria were lysed in the lysis buffer containing 500 mM NaCl, 10 mm Tris HCl and 0.1% NP-40 (pH=8.5). FabI was purified from the supernatant with Ni-NTA agarose (Qiagen) and centrifuged at 14000 g for 30 min. The resin containing Ni-NTA was transferred to a Poly-Prep column (Bio-Red) and equilibrated twice with washing buffer (50 mm PBS, pH 8.2, 300 mM NaCl and 10 mm imidazole). After incubation with FabI lysate at 4° C. for 30 minutes, the resin was washed twice with a washing buffer, and the FabI protein was eluted with a buffer containing 50 mm PBS, pH 8.2, 300 mM NaCl and 250 mm imidazole. 300 μM butyl coenzyme A was added and followed by adding the mixture of 100 nM recombinant FabI, 400 μM NADH and 40 μM NAD+. The oxidation rate of NADH to NAD+ was measured every 2 minutes with a microplate reader at 340 nm. In order to determine the inhibition ability of PBDEs derivatives to the FabI enzyme activity, PBDEs with different concentrations (0.014-10 μM) were incubated with 100 nM recombinant FabI on ice for 60 minutes, and then the oxidation rate of NADH to NAD+ was determined.
# T1 sequence (P0AEK4 whole entry): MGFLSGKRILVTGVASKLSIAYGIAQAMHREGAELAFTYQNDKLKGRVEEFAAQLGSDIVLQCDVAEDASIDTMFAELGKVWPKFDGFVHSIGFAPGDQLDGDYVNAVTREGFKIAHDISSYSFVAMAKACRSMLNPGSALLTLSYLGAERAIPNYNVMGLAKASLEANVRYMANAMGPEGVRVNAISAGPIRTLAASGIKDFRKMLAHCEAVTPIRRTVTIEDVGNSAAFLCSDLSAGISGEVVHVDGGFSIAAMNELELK
row,Compound,in vitro measurement of the binding activity
1,Oc1c(Oc2ccc(Br)cc2Br)cc(Br)c(Br)c1Br [2OHBDE123],No inhibition; also recorded: No inhibit
2,COc1ccc(Oc2ccc(Br)cc2Br)c(Br)c1 [4MeOBDE17],No inhibition; also recorded: No inhibit
3,Oc1cc(Br)c(Oc2ccc(Br)cc2Br)cc1Br [4OHBDE49],able to inhibit; also recorded: inhibition
4,COc1cc(Oc2ccc(Br)cc2Br)c(Br)cc1Br [5MeOBDE47],No inhibition; also recorded: No inhibit
5,COc1cc(Br)cc(Br)c1Oc1ccccc1Br [6MeOBDE17],No inhibition; also recorded: No inhibit
6,COc1cc(Br)cc(Br)c1Oc1ccc(Br)cc1Br [6MeOBDE47],No inhibition; also recorded: No inhibit
7,COc1cc(Br)c(Br)c(Br)c1Oc1ccc(Br)cc1Br [6MeOBDE85],No inhibition; also recorded: No inhibit
8,COc1c(Br)cc(Br)c(Br)c1Oc1ccc(Br)cc1Br [6MeOBDE90],No inhibition; also recorded: No inhibit
9,Oc1cc(Br)cc(Br)c1Oc1ccccc1Br [6OHBDE17],Inhibit
10,Oc1cc(Br)cc(Br)c1Oc1ccc(Br)cc1Br [6OHBDE47],Inhibit
11,Oc1c(Br)cc(Br)c(Br)c1Oc1ccc(Br)cc1Br [6OHBDE90],Inhibit
12,Oc1c(Br)c(Br)c(Br)c(Br)c1Oc1ccc(Br)cc1Br [6OHBDE137],Inhibit
13,"Oc1cc(Cl)ccc1Oc1ccc(Cl)cc1Cl [TCS, Triclosan, reference compound]",Inhibit
